Structures can show the parent of a compound that is named as a salt. Where two headings read alike, the source gives them in different places.
Tests used:
[1] = design: method as in Investigator’s Brochure (IB); conditions: rat, average; ref Investigator’s Brochure (IB); cited from earlier work
CYP2B6 = tested on: CYP2B6; design: method as in Investigator’s Brochure (IB); conditions: ref Investigator’s Brochure (IB), cited from earlier work
[2] = Phase 1a single ascending dose study: safety and tolerability (treatment-emergent adverse events); type: in vivo, human; conditions: for Tolerability of single oral doses / Dose-limiting toxicity: po; for Maximum tolerated dose: single oral dose in humans, not yet determined
Procedure: UV-4 ((2R,3R,4R,5S)-2-(hydroxymethyl)-1-(9-methoxynonyl)piperidine-3,4,5-triol, also called N-(9’-methoxynonyl)-1-deoxynojirimycin, or MON-DNJ) hydrochloride was evaluated in a first-in-human, randomized, single-center, double-blind, placebo-controlled, parallel group, single ascending dose Phase 1a clinical trial in healthy subjects (Figs 1 and 2, ClinicalTrials.gov Identifier NCT02061358 https://clinicaltrials.gov/ct2/show/NCT02061358). The primary objective was to determine the safety and tolerability of a single-ascending oral dose of UV-4 hydrochloride (Fig 3). […] The secondary objective was to determine PK parameters describing absorption and elimination of UV-4 following a single oral dose of UV-4 hydrochloride. Eight cohorts of eight subjects each were enrolled and completed the study. In each cohort, six subjects received UV-4 as the hydrochloride; two received placebo. Subjects were screened against study eligibility criteria up to four weeks (Days -28 to -2) before admission to the clinic (Day -1). Dosing was performed on an inpatient basis. Subjects remained in clinic for 48 hours post-dosing for PK sample collection and safety assessments and were discharged from the clinic on Day 3. Subjects returned to the clinic on Day 4 for additional safety assessments, then again on Day 9 ± 1 for a final follow-up visit.
Safety assessments included telemetry (pre-dose and 12 hours during and post-dosing), 12-lead ECG measurements, vital signs (supine and standing) including systolic blood pressure (SBP) and diastolic blood pressure (DBP) (mmHg), pulse rate (beats/minute), respiratory rate (breaths/minute), and oral temperature, physical examinations, clinical laboratory assessments (hematology, clinical chemistry, coagulation, urinalysis, platelet function), stool evaluation including occult blood, and adverse events (AEs).
Safety oversight was provided by an independent safety monitor (ISM), Safety Review Committee (SRC), and Safety Monitoring Committee (SMC). In addition, a cardiologist reviewed all cases with AEs related to heart rate and blood pressure. Summary statistics for subject baseline characteristics and measurements, disposition, exposure, and safety were tabulated by cohort in a blinded manner for the review by the SRC and SMC. Blinded individual case information was also supplied to the SMC and cardiologist for review. SRC reviews occurred after all subjects in a given cohort completed evaluations, or after predefined criteria triggered a review (halting criteria). Provided satisfactory safety review, subjects were enrolled into the next higher dose cohort. In addition, the SMC met to review all safety and exposure data after completion of Cohort 3. All AEs were coded to System Organ Class (SOC) and Preferred Term (PT) using the Medical Dictionary for Regulatory Activities (MedDRA), Version 16.1 [34].
All AEs were graded for severity and relationship to study product, according to one of the following categories:
• Grade 1: An event that is easily tolerated by the subject, causing minimal discomfort and not interfering with everyday activities; • Grade 2: An event that is sufficiently discomforting to interfere with normal everyday activities; • Grade 3: An event that prevents normal everyday activities; • Grade 4: An event that requires an emergency room visit or hospitalization […]
9.1 Specification of Safety Parameters
Safety is a primary outcome measure.
Adverse events will be evaluated from time of dose administration through the follow-up visit. Adverse events that have not resolved at the follow-up visit will be followed until resolution or until medically stable. […]
If a vital sign measurement is observed to be abnormal, it may be repeated up to a total of 2 times at 5 to 10 minutes intervals. If a normal value is obtained, no further repeat measurements are required. If the value is still abnormal after 2 repeats, the least abnormal value will be utilized for grading the AE. The AE will […]

CYP2D6 = tested on: CYP2D6; design: method as in Investigator’s Brochure (IB); conditions: in vitro; ref Investigator’s Brochure (IB); cited from earlier work
[3] = cited from earlier work
[4] = design: method as in Investigator’s Brochure (IB); conditions: dogs, ref Investigator’s Brochure (IB), cited from earlier work; for Finding at the highest dose: 150 mg/kg/dose TID for seven days
CYP1A2 = tested on: CYP1A2; design: method as in Investigator’s Brochure (IB); conditions: in vitro; ref Investigator’s Brochure (IB); cited from earlier work
[5] = in vitro; ref Investigator’s Brochure (IB); cited from earlier work
[6] = cited from earlier work; remark: listed apart in the source
[7] = ICH accelerated stability storage condition; cited from earlier work
[8] = dog, 2 TID mg/kg, Day 28 (Recovery)
[9] = dog, 10 TID mg/kg (NOAEL), Day 28 (Recovery)
[10] = dogs, 10 mg/kg/dose TID, ref Investigator’s Brochure (IB)

COCCCCCCCCCN1C[C@H](O)[C@@H](O)[C@H](O)[C@H]1CO [UV-4, N-(9’-methoxynonyl)-1-deoxynojirimycin]
Bioavailability [1]: ≥ 99% | Estimated IC50 (CYP2B6; CYP2B6): > 191 mg/L | IC50 (CYP2B6; CYP2B6, read-out: Estimated IC50): > 600 µM | Direct inhibition of CYP2B6 (CYP2B6; in vitro): weak direct inhibition | Grade 2 Related TEAE: number (%) of subjects ([2]; both, human, in vivo): 1 (2.1%) | Grade 3 Related TEAE: number (%) of subjects ([2]; both, human, in vivo): 0 | Grade 3 TEAE: number (%) of subjects ([2]; both, human, in vivo): 1 (2.1%) | Incidence of Bristol Stool Scale Type 7 ([2]; both, human, in vivo): no incidence of Bristol Stool Scale Type 7 | Related TEAE, Abdominal Pain: number (%) of subjects ([2]; both, human, in vivo): 1 (2.1%) | Related TEAE, Balance disorder: number (%) of subjects ([2]; both, human, in vivo): 1 (2.1%) | Related TEAE, Blood Calcium Decreased: number (%) of subjects ([2]; both, human, in vivo): 1 (2.1%) | Related TEAE, Blood Pressure Decreased: number (%) of subjects ([2]; both, human, in vivo): 0 | Related TEAE, Cardiac disorders (System Organ Class): number (%) of subjects ([2]; both, human, in vivo): 1 (2.1%) | Related TEAE, Dizziness postural: number (%) of subjects ([2]; both, human, in vivo): 1 (2.1%) | Related TEAE, Dizziness: number (%) of subjects ([2]; both, human, in vivo): 1 (2.1%) | Related TEAE, Ear and labyrinth disorders (System Organ Class): number (%) of subjects ([2]; both, human, in vivo): 1 (2.1%) | Related TEAE, Gastrointestinal disorders (System Organ Class): number (%) of subjects ([2]; both, human, in vivo): 3 (6.3%) | Related TEAE, General disorders and administration site conditions (System Organ Class): number (%) of subjects ([2]; both, human, in vivo): 1 (2.1%) | Related TEAE, Headache: number (%) of subjects ([2]; both, human, in vivo): 2 (4.2%) | Related TEAE, Investigations (System Organ Class): number (%) of subjects ([2]; both, human, in vivo): 2 (4.2%) | Related TEAE, Lipase increased: number (%) of subjects ([2]; both, human, in vivo): 1 (2.1%) | Related TEAE, Local Swelling: number (%) of subjects ([2]; both, human, in vivo): 1 (2.1%) | Related TEAE, Nervous system disorder (System Organ Class): number (%) of subjects ([2]; both, human, in vivo): 4 (8.3%) | Related TEAE, Neutrophil count decreased: number (%) of subjects ([2]; both, human, in vivo): 0 | Related TEAE, Presyncope: number (%) of subjects ([2]; both, human, in vivo): 0 | Related TEAE, Proteinuria: number (%) of subjects ([2]; both, human, in vivo): 1 (2.1%) | Related TEAE, Renal and urinary disorders (System Organ Class): number (%) of subjects ([2]; both, human, in vivo): 1 (2.1%) | Related TEAE, Supraventricular tachycardia: number (%) of subjects ([2]; both, human, in vivo): 0 | Related TEAE, Ventricular tachycardia: number (%) of subjects ([2]; both, human, in vivo): 1 (2.1%) | Related TEAE, Vertigo: number (%) of subjects ([2]; both, human, in vivo): 1 (2.1%) | Related TEAE, White blood cell count decreased: number (%) of subjects ([2]; both, human, in vivo): 0 | Subjects with ≥1 TEAE: number (%) of subjects ([2]; both, human, in vivo): 43 (89.6%) | Tolerability of single oral doses ([2]; both, human, in vivo): safe at all doses tested up to 1000 mg | Grade 1 Related TEAE: number (%) of subjects ([2]; human, in vivo): 10 (20.8%) | TEAE Haematuria: number (%) of subjects ([2]; human, in vivo): 4 (8.3) | TEAE Headache: number (%) of subjects ([2]; human, in vivo): 3 (6.3) | TEAE Prothrombin time prolonged: number (%) of subjects ([2]; human, in vivo): 4 (8.3) | Dose-dependent increases in adverse events ([2]; in vivo): not observed | Fecal occult blood findings ([2]; in vivo): None of the subjects had positive fecal occult blood findings | Subjects reporting abdominal pain ([2]; in vivo): two | Subjects who vomited ([2]; in vivo): one | Dose-limiting toxicity ([2]; in vivo): No dose limiting toxicity was observed | Tolerability of single oral doses ([2]; in vivo): well tolerated | Maximum tolerated dose [2]: > 1000 mg | Direct inhibition of CYP2D6 (CYP2D6): No clinically relevant direct inhibition | Accumulation ([3]; BID or TID dosing after 14 days in mouse or dog, ref Investigator’s Brochure (IB)): did not accumulate | Finding at the highest dose [4]: severe GI effects | Finding at 10 mg/kg/dose TID [4]: diarrhea was still apparent although not adverse | Direct inhibition of CYP1A2 (CYP1A2): No clinically relevant direct inhibition

COCCCCCCCCCN1C[C@H](O)[C@@H](O)[C@H](O)[C@H]1CO [UV-4B, N-(9’-methoxynonyl)-1-deoxynojirimycin hydrochloride]
Mutagenicity, Ames bacterial reverse mutation (two assays) [5]: not found to be mutagenic or clastogenic | Related TEAE, Balance disorder: number (%) of subjects ([2]; both, human, in vivo): 1/48 | Related TEAE, Dizziness postural: number (%) of subjects ([2]; both, human, in vivo): 1/48 | Related TEAE, Dizziness: number (%) of subjects ([2]; both, human, in vivo): 1/48 | Related TEAE, Headache: number (%) of subjects ([2]; both, human, in vivo): 2/48 | Dose-limiting toxicity ([2]; in vivo): not observed | Maximum tolerated dose [2]: > 1000 mg | Bioavailability of the hydrochloride salt ([3]; animal studies): high bioavailability | AST [6, 8]: − | Decreased thymus weight [6, 8]: − | Lymphocyte depletion [6, 8]: − | PLT [6, 8]: − | Decreased thymus weight ([6]; dog, 10 TID mg/kg (NOAEL), Day 28 (Recovery), females): −(F) | Decreased thymus weight ([6]; dog, 10 TID mg/kg (NOAEL), Day 28 (Recovery), males): ↓(M) | ALT [6, 9]: − | AST [6, 9]: − | Inverted AST/ALT ratio [6, 9]: − | Lymphoid depletion in thymus, spleen, lymph nodes and GALT [6, 9]: − | Nonformed feces [6, 9]: − | PLT [6, 9]: − | Reticulocyte count [6, 9]: − | aPTT [6, 9]: − | Increase in ALT [6, 10]: up to 2.9 x BL | Increase in AST [6, 10]: up to 9.7 x BL | Increase in aPTT [6, 10]: 2.2 x BL | NOAEL ([6]; dogs, 14 days of TID administration, ref Investigator’s Brochure (IB)): 30 mg/kg/day | No observed effect level (NOEL) ([6]; dogs, 14 days, lowest dose exceeded the NOEL, ref Investigator’s Brochure (IB)): < 2 mg/kg/dose TID | NOAEL ([6]; dogs, 14 days, ref Investigator’s Brochure (IB)): 10 mg/kg/dose TID | Average (male and female) AUC(0-8) ([6]; dogs, end of dosing phase, at NOAEL 30 mg/kg/day, ref Investigator’s Brochure (IB)): 10,940 ng•h/mL | Stability trend of drug substance batches [7]: increases in water content | Finding at the highest dose [4]: severe GI effects | Finding at 10 mg/kg/dose TID [4]: diarrhea was still apparent
